Test results: US20250195521A1 (Revolution Medicines, Inc., priority 2020, published 2025)
Read-outs that look alike come from different tables or passages of the source.

Settings: 18-membered ring

(2S,6S)—N-((6^3S,3S,4S,Z)-3-(2-(dimethylamino) ethoxy)-1^1-ethyl-1^2-(2-((S)-1-methoxyethyl) pyridin-3-yl)-10, 10-dimethyl-5,7-dioxo-6^1,6^2,6^3,6^4,6^5,6^6-hexahydro-1^1H-8-oxa-2 (4,2)-thiazola-1 (5,3)-indola-6 (1,3)-pyridazinacycloundecaphane-4-yl)-2,4,6-trimethylpiperazine-1-carboxamide
ring closure, isolated yield (cc_pd bond, Pd(dtbpf)Cl2/K3PO4, toluene/1,4-dioxane/H2O 3:1:1, 57.0 mM, 60.0 °C): 50%

(6^3S,3S,4S,Z)-4-(dibenzylamino)-1^1-ethyl-3-methoxy-1^2-(2-((S)-1-methoxyethyl) pyridin-3-yl)-10, 10-dimethyl-6^1,6^2,6^3,6^4,6^5,6^6-hexahydro-1^1H-8-oxa-2 (4,2)-thiazola-1 (5,3)-indola-6 (1,3)-pyridazinacycloundecaphane-5,7-dione
ring closure, isolated yield (cc_pd bond, Pd(DtBPF)Cl2/K3PO4, dioxane/H2O 5:1, 40.0 mM, 80.0 °C): 44.4%

(9H-fluoren-9-yl) methyl (1R,5S,7r)-7-(5-((6^3S,3S,4S,Z)-4-((tert-butoxycarbonyl) amino)-3-ethoxy-1^1-ethyl-10, 10-dimethyl-5,7-dioxo-6^1,6^2,6^3,6^4,6^5,6^6-hexahydro-1^1H-8-oxa-2 (4,2)-thiazola-1 (5,3)-indola-6 (1,3)-pyridazinacycloundecaphane-12-yl)-6-((S)-1-methoxyethyl) pyridin-3-yl)-3-oxa-9-azabicyclo[3.3.1]nonane-9-carboxylate
ring closure, isolated yield (cc_pd bond, Pd(DtBPF)Cl2/K3PO4, toluene/1,4-dioxane/H2O (3:1:1), […], 80.0 °C): 65%

(9H-fluoren-9-yl) methyl ((6^3S,4S,Z)-3-(dimethylamino)-1^1-ethyl-1^2-(2-((S)-1-methoxyethyl) pyridin-3-yl)-10, 10-dimethyl-5,7-dioxo-6^1,6^2,6^3,6^4,6^5,6^6-hexahydro-1^1H-8-oxa-2 (4,2)-thiazola-1 (5,3)-indola-6 (1,3)-pyridazinacycloundecaphane-4-yl) carbamate
ring closure, isolated yield (cc_pd bond, Pd(dtbpf)Cl2/K3PO4, toluene/1,4-dioxane/H2O 3:1:1, 27.3 mM, 60.0 °C): 19%

(9H-fluoren-9-yl)methyl-7-(5-((6^3S,3S,4S,Z)-4-((tert-butoxycarbonyl) amino)-3-ethoxy-1^1-ethyl-10,10-dimethyl-5,7-dioxo-6^1,6^2,6^3,6^4,6^5,6^6-hexahydro-1^1H-8-oxa-2 (4,2)-thiazola-1 (5,3)-indola-6 (1,3)-pyridazinacycloundecaphane- 12-yl)-6-((S)-1-methoxyethyl) pyridin-3-yl)-3-oxa-9-azabicyclo[3.3.1] non-6-ene-9-carboxylate
ring closure, isolated yield (cc_pd bond, Pd(dppf)Cl2.DCM/K3PO4, toluene/dioxane/H2O 3:1:1, 205.0 mM, 80.0 °C): 49%

benzyl 4-(5-((3′S,3′S,4′S,Z)-4′-((tert-butoxycarbonyl) amino)-3′-ethoxy-1′-(2-isopropoxyethyl)-5′, 7′-dioxospiro[cyclopropane-1,10′-8-oxa-2 (4,2)-thiazola-1 (5,3)-indola-6 (1,3)-pyridazinacycloundecaphan]-2′-yl)-6-((S)-1-methoxyethyl) pyridin-3-yl) piperazine-1-carboxylate
ring closure, isolated yield (cc_pd bond, XPhos-Pd-G3/XPhos/K3PO4, toluene/1,4-dioxane/H2O 3:1:1, 28.0 mM, 65.0 °C): 27%

benzyl 4-(5-((6^3S,3S,4S,Z)-4-((tert-butoxycarbonyl) amino)-3-ethoxy-1^1-(2-isopropoxyethyl)-10,10-dimethyl-5,7-dioxo-6^1,6^2,6^3,6^4,6^5,6^6-hexahydro-1^1H-8-oxa-2 (4,2)-thiazola-1 (5,3)-indola-6 (1,3)- pyridazinacycloundecaphane-12-yl)-6-((S)-1-methoxyethyl) pyridin-3-yl) piperazine-1-carboxylate
ring closure, isolated yield (cc_pd bond, Pd(dtbpf)Cl2/K3PO4, toluene/1,4-dioxane/H2O 3:1:1, 16.0 mM, 65.0 °C): 44%

benzyl 4-((((6^3S,3S,4S,Z)-4-((tert-butoxycarbonyl) amino)-1^1-ethyl-1^2-(2-((S)-1-methoxyethyl) pyridin-3-yl)-10,10-dimethyl-5,7-dioxo-6^1,6^2,6^3,6^4,6^5,6^6-hexahydro-1^1H-8-oxa-2 (4,2)-thiazola-1 (5,3)-indola-6 (1,3)-pyridazinacycloundecaphane-3-yl)oxy) methyl)-3,6-dihydropyridine-1 (2H)-carboxylate
ring closure, isolated yield (cc_pd bond, Pd(dtbpf)Cl2/K3PO4, toluene/dioxane/H2O, 60.0 °C): 32%

benzyl 5-((6^3S,3S,4S,Z)-4-((tert-butoxycarbonyl) amino)-3-ethoxy-1^1-ethyl-10, 10-dimethyl-5,7-dioxo-6^1,6^2,6^3,6^4,6^5,6^6-hexahydro-1^1H-8-oxa-2 (4,2)-thiazola-1 (5,3)-indola-6 (1,3)-pyridazinacycloundecaphane-12-yl)-6-((S)-1-methoxyethyl)-3′, 6′-dihydro-[3,4′-bipyridine]-1′ (2′H)-carboxylate
ring closure, isolated yield (cc_pd bond, Pd(dtbpf)Cl2/K3PO4, toluene/1,4-dioxane/H2O 3:1:1, 40.7 mM, 70.0 °C): 39%

tert-butyl ((2^2R,6^3S,4S)-1^1-ethyl-1^2-(2-((S)-1-methoxyethyl) pyridin-3-yl)-22-(methoxymethyl)-10,10-dimethyl-5,7-dioxo-2^1,2^2,2^3,2^6,6^1,6^2,6^3,6^4,6^5,6^6-decahydro-1^1H-8-oxa-1 (5,3)-indola-6 (1,3)-pyridazina-2 (5,1)-pyridinacycloundecaphane-4-yl) carbamate
ring closure, isolated yield (cc_pd bond, Pd(dppf)Cl2/K3PO4, toluene/dioxane/H2O, […], 70.0 °C): 30%

tert-butyl ((6^3S,3S,4S,Z)-3-(2,2-difluoroethoxy)-1^1-ethyl-1^2-(2-((S)-1-methoxyethyl) pyridin-3-yl)-10,10-dimethyl-5,7-dioxo-6^1,6^2,6^3,6^4,6^5,6^6-hexahydro-1^1H-8-oxa-2 (4,2)-thiazola-1 (5,3)-indola-6 (1,3)-pyridazinacycloundecaphane-4-yl) carbamate
ring closure, isolated yield (cc_pd bond, Pd(dtbpf)Cl2/K3PO4, toluene/dioxane/H2O, 10.0 mM, 60.0 °C): 59%

tert-butyl ((6^3S,3S,4S,Z)-3-ethoxy-1^1-ethyl-1^2-(2-((S)-1-methoxyethyl) pyridin-3-yl)-10, 10-dimethyl-5,7-dioxo-6^1,6^2,6^3,6^4,6^5,6^6-hexahydro-1^1H-8-oxa-2 (4,2)-thiazola-1 (5,3)-indola-6 (1,3)-pyridazinacycloundecaphane-4-yl) carbamate
ring closure, isolated yield (cc_pd bond, Pd(dtbpf)Cl2/K3PO4, toluene/dioxane/H2O, 26.7 mM, 60.0 °C): 31%

tert-butyl ((6^3S,4S)-2^3-((tert-butyldiphenylsilyl)oxy)-1^1-ethyl-1^2-(2-((S)-1-methoxyethyl) pyridin-3-yl)-10,10-dimethyl-5,7-dioxo-2^1,2^2,2^3,2^6,6^1,6^2,6^3,6^4,6^5,6^6-decahydro-1^1H-8-oxa-1 (5,3)-indola-6 (1,3)- pyridazina-2 (5,1)-pyridinacycloundecaphane-4-yl) carbamate
ring closure, isolated yield (cc_pd bond, Pd(dppf)Cl2/K2CO3, toluene/1,4-dioxane/H2O 3:1:1, 20.0 mM, 65.0 °C): 42%

tert-butyl ((6^3S,4S)-25-(difluoromethyl)-1^1-ethyl-1^2-(2-((S)-1-methoxyethyl) pyridin-3-yl)-10,10-dimethyl-5,7-dioxo-6^1,6^2,6^3,6^4,6^5,6^6-hexahydro-1^1H-8-oxa-1 (5,3)-indola-6 (1,3)-pyridazina-2 (1,3)-benzenacycloundecaphane-4-yl) carbamate
ring closure, isolated yield (ester bond, EDCI/HOBt/DIEA, DCM): 51%

tert-butyl ((6^3S,4S,Z)-1^1-ethyl-1^2-(2-((S)-1-methoxyethyl) pyridin-3-yl)-10,10-dimethyl-5,7-dioxo-6^1,6^2,6^3,6^4,6^5,6^6-hexahydro-1^1H-8-oxa-2 (2,4)-oxazola-1 (5,3)-indola-6 (1,3)-pyridazinacycloundecaphane-4-yl) carbamate
ring closure, isolated yield (cc_pd bond, XPhos Pd G3/XPhos/K3PO4, dioxane/H2O 5:1, 55.0 mM, 70.0 °C): 56%

tert-butyl ((6^3S,4S,Z)-1^1-ethyl-1^2-(2-((S)-1-methoxyethyl) pyridin-3-yl)-21, 10, 10-trimethyl-5,7-dioxo-6^1,6^2,6^3,6^4,6^5,6^6-hexahydro-11H,21H-8-oxa-1 (5,3)-indola-6 (1,3)-pyridazina-2 (5,3)-triazolacycloundecaphane-4-yl) carbamate
ring closure, isolated yield (cc_pd bond, XPhos Pd G3/XPhos/K3PO4, dioxane/H2O 5:1, 71.7 mM, 75.0 °C): 56.8%
